Several values for one entry are separate records, joined by “and”; a condition that tells them apart may be missing. Identical values can stand only once. Entries after “also recorded” stand apart in the source; their conditions may differ.
Experiments:
Assay type in all cases: in vivo, human
[1] = test system: ALMS patients; experiment: Liver stiffness by transient elastography (FibroScan) and Metavir score, Phase 2 open-label study; settings: 800 mg daily oral
Experimental: The study was a Phase 2, single-centre, single-arm, open-label study of sodium 2-(3-pentylphenyl)acetate administered at a total daily oral dose of 800 mg for up to 72 weeks in subjects with ALMS was undertaken. The initial duration of the study was 24 weeks, and subjects were offered to enrol into an extension phase of 36 or 48 weeks. The schedule of study procedures for the enrolment, intervention, and assessments for participants is outlined in FIG. 1. Sodium 2-(3-pentylphenyl)acetate was formulated in soft gelatine capsules containing 200 mg of Sodium 2-(3-pentylphenyl)acetate (amorphous powder) per capsule, polyethylene glycol 400, National Formulary (NF), hydrochloric acid (for pH adjustment), and water. A total of 15 subjects participated in the study. […] Twelve (12) subjects met the eligibility criteria and received at least 1 dose of 800 mg sodium 2-(3-pentylphenyl)acetate, with all 12 subjects completing the initial 24-week treatment period as planned. A 36-week EP was added to the study protocol (Table 1). Ten (10) of the 12 subjects who completed the initial 24-week study drug treatment period continued in the EP, with 6 subjects having a break in treatment until the amendment was implemented before continuing treatment in the EP and 4 subjects continuing in the EP without any break in treatment. Two subjects (826-001-002 and 826-001-014) completed the study after the initial 24-week study drug treatment period. The effect of sodium 2-(3-pentylphenyl)acetate on liver histology in ALMS patients was first assessed by measuring liver stiffness. Liver stiffness is a physical parameter that reflects the health of the liver and is commonly used to diagnose liver diseases. Increased liver stiffness may be associated with hepatic dysfunction.

[2] = test system: ALMS patients; experiment: Albumin-to-creatinine ratio (ACR); settings: for Change from Baseline ACR, Mean (SD) / Change from Baseline ACR, Median / ACR: 800 mg daily oral; for ACR: individual subjects, listed as sodium 2-(3-pentylphenypacetate)
Experimental: (§1) The study was a Phase 2, single-centre, single-arm, open-label study of sodium 2-(3-pentylphenyl)acetate administered at a total daily oral dose of 800 mg for up to 72 weeks in subjects with ALMS was undertaken. The initial duration of the study was 24 weeks, and subjects were offered to enrol into an extension phase of 36 or 48 weeks. The schedule of study procedures for the enrolment, intervention, and assessments for participants is outlined in FIG. 1. Sodium 2-(3-pentylphenyl)acetate was formulated in soft gelatine capsules containing 200 mg of Sodium 2-(3-pentylphenyl)acetate (amorphous powder) per capsule, polyethylene glycol 400, National Formulary (NF), hydrochloric acid (for pH adjustment), and water. Albuminuria, the increase in excretion of urinary albumin, is marker of kidney damage and is assessed by measuring the ACR. The effect of sodium 2-(3-pentylphenyl)acetate on kidney histology/damage in ALMS patients was assessed by measuring the ACR.

[3] = test system: ALMS patients; experiment: Histological examination of adipocyte tissue artery (perivascular adipose tissue); settings: an ALMS subject; after 24 weeks of treatment with 800 mg; FIG. 3B
Experimental: as §1, with “Baseline histological examination of an adipocyte tissue artery (perivascular adipose tissue)” for “Albuminuria, the increase”, “an ALMS subject was characterized by signs” for “excretion”, “dystrophy, homogenized blurred cytoplasm in smooth muscle cells,” for “urinary albumin, is marker of kidney damage”, “nuclei with irregular shape (FIG. 3A).” for “is assessed by measuring the ACR. The effect of sodium 2-(3-pentylphenyl)acetate on kidney histology/damage in ALMS patients was assessed by measuring the ACR.”

[4] = individual subjects, EP Week 12 (Week 36)
[5] = individual subjects, EP Week 24 (Week 48)
[6] = individual subjects, EP Week 36 (Week 60)

CCCCCc1cccc(CC(=O)[O-])c1.[Na+] [sodium 2-(3-pentylphenyl)acetate] was tested, and the “Transient Elastography Score” value ([1]; individual subjects (one line per subject), Week 12) was 7.1 kPa and 6.1 kPa and 4.5 kPa and 5.3 kPa and 3.1 kPa and 10.5 kPa and 19.6 kPa and 7.8 kPa and 12.2 kPa and 12.0 kPa and 50.5 kPa and 7.7 kPa, the “Metavir Score (F)” value [1, 4] was “(F0/1) (Metavir score F0-F1: absence or mild fibrosis (2.5-7.0 kPa on FibroScan ®)); also recorded: (F2) (Metavir score F2: significant fibrosis ≥ 7.1 to < 9.5 kPa on FibroScan ®)); also recorded: (F4) (Metavir score F4: cirrhosis( ≥ 12.5 kPa on FibroScan ®)); also recorded: (F3) (Metavir score F3: severe fibrosis ≥ 9.5 to < 12.5 kPa on FibroScan ®)” and the “Transient Elastography Score” value [1, 4] was 6.6 kPa and 4.2 kPa and 6.5 kPa and 4.6 kPa and 8.9 kPa and 18.6 kPa and 5.8 kPa and 10.2 kPa and 14.7 kPa and 7.4 kPa. The “Metavir Score (F)” value [1, 5] was “(F2) (Metavir score F2: significant fibrosis ≥ 7.1 to < 9.5 kPa on FibroScan ®)); also recorded: (F0/1) (Metavir score F0-F1: absence or mild fibrosis (2.5-7.0 kPa on FibroScan ®)); also recorded: (F4) (Metavir score F4: cirrhosis( ≥ 12.5 kPa on FibroScan ®)); also recorded: (F3) (Metavir score F3: severe fibrosis ≥ 9.5 to < 12.5 kPa on FibroScan ®)”, the “Transient Elastography Score” value [1, 5] was 7.1 kPa and 4.1 kPa and 4.7 kPa and 5.1 kPa and 7.5 kPa and 21.6 kPa and 5.0 kPa and 12.1 kPa and 12.6 kPa and 6.9 kPa and the “Metavir Score (F)” value [1, 6] was “(F2) (Metavir score F2: significant fibrosis ≥ 7.1 to < 9.5 kPa on FibroScan ®)); also recorded: (F0/1) (Metavir score F0-F1: absence or mild fibrosis (2.5-7.0 kPa on FibroScan ®)); also recorded: (F4) (Metavir score F4: cirrhosis( ≥ 12.5 kPa on FibroScan ®)); also recorded: (F3) (Metavir score F3: severe fibrosis ≥ 9.5 to < 12.5 kPa on FibroScan ®)”. The “Transient Elastography Score” value [1, 6] was 7.8 kPa and 3.8 kPa and 5.0 kPa and 3.9 kPa and 17.1 kPa and 6.0 kPa and 8.6 kPa and 12.2 kPa and 5.1 kPa, the “Metavir Score (F)” value ([1]; individual subjects, Week 12) was “(F2) (Metavir score F2: significant fibrosis ≥ 7.1 to < 9.5 kPa on FibroScan ®)); also recorded: (F0/1) (Metavir score F0-F1: absence or mild fibrosis (2.5-7.0 kPa on FibroScan ®)); also recorded: (F3) (Metavir score F3: severe fibrosis ≥ 9.5 to < 12.5 kPa on FibroScan ®); also recorded: (F4) (Metavir score F4: cirrhosis( ≥ 12.5 kPa on FibroScan ®))” and the “Metavir Score (F)” value ([1]; individual subjects, Week 24) was “(F2) (Metavir score F2: significant fibrosis ≥ 7.1 to < 9.5 kPa on FibroScan ®)); also recorded: (F0/1) (Metavir score F0-F1: absence or mild fibrosis (2.5-7.0 kPa on FibroScan ®)); also recorded: (F4) (Metavir score F4: cirrhosis( ≥ 12.5 kPa on FibroScan ®))”. For the same molecule, the “Transient Elastography Score” value ([1]; individual subjects, Week 24) was 7.2 kPa and 7.6 kPa and 5.9 kPa and 5.2 kPa and 4.6 kPa and 8.1 kPa and 21.8 kPa and 5.6 kPa and 8.6 kPa and 14.3 kPa and 48.9 kPa and 9.0 kPa, the “Change from Baseline ACR, Mean (SD)” value ([2]; EP Week 12 (Week 36), N=10) was 6.19 (16.707) mg/mmol and the “Change from Baseline ACR, Median” value ([2]; EP Week 12 (Week 36), N=10) was 1.25 mg/mmol. For the same molecule, the “Change from Baseline ACR, Mean (SD)” value ([2]; EP Week 24 (Week 48), N=10) was 13.30 (28.301) mg/mmol, the “Change from Baseline ACR, Median” value ([2]; EP Week 24 (Week 48), N=10) was 1.30 mg/mmol and the “Change from Baseline ACR, Mean (SD)” value ([2]; EP Week 36 (Week 60), N=9) was 21.32 (44.461) mg/mmol. The “Change from Baseline ACR, Median” value ([2]; EP Week 36 (Week 60), N=9) was 1.60 mg/mmol, the “increase in ACR from baseline” value ([2]; Subject 826-001-003, 32-day break in treatment) was 13.8 mg/mmol and the “increase in ACR from baseline” value ([2]; Subject 826-001-007, 32-day break in treatment) was 133.8 mg/mmol. The “increase in ACR from baseline” value ([2]; Subject 826-001-013, 30-day break in treatment) was 43.9 mg/mmol, the “Change from Baseline ACR, Mean (SD)” value ([2]; Week 12, N=12) was 10.08 (20.848) mg/mmol and the “Change from Baseline ACR, Median” value ([2]; Week 12, N=12) was 0.90 mg/mmol. For the same molecule, the “Change from Baseline ACR, Mean (SD)” value ([2]; Week 24, N=11) was 4.96 (14.993) mg/mmol, the “Change from Baseline ACR, Median” value ([2]; Week 24, N=11) was 0.30 mg/mmol and the ACR ([2]; EP Week 12 (Week 36)) was 7.5 mg/mmol and 18.0 mg/mmol and 7.9 mg/mmol and 2.0 mg/mmol and 2.2 mg/mmol and 95.0 mg/mmol and <2.3 mg/mmol and 8.6 mg/mmol and 56.3 mg/mmol and 0.6 mg/mmol. For the same molecule, the ACR ([2]; EP Week 24 (Week 48)) was 6.2 mg/mmol and 21.6 mg/mmol and 6.7 mg/mmol and 2.1 mg/mmol and 0.8 mg/mmol and 111.7 mg/mmol and 0.7 mg/mmol and 12.9 mg/mmol and 106.5 mg/mmol and <2.3 mg/mmol, the ACR ([2]; EP Week 36 (Week 60)) was 6.1 mg/mmol and 21.9 mg/mmol and 19.2 mg/mmol and <2.3 mg/mmol (2×) and 178.3 mg/mmol and 1.9 mg/mmol and 8.6 mg/mmol and 85.4 mg/mmol and the ACR ([2]; Week 12) was 4.3 mg/mmol and 22.5 mg/mmol and 24.3 mg/mmol and 14.5 mg/mmol and 0.4 mg/mmol and <2.3 mg/mmol (3×) and 89.2 mg/mmol and 15.1 mg/mmol and 102.9 mg/mmol and 15.6 mg/mmol. For the same molecule, the ACR ([2]; Week 24) was 4.2 mg/mmol and 15.5 mg/mmol and 14.5 mg/mmol and 10.7 mg/mmol and 2.2 mg/mmol and 77.0 mg/mmol and <2.3 mg/mmol and 13.2 mg/mmol and 77.4 mg/mmol and 10.2 mg/mmol and 1.4 mg/mmol and the “histological examination of adipocyte tissue artery” value [3] was “the adipocyte tissue artery looked more normal”.
